In patent US12708630B2, “Combined therapy of 4′-thio-5-aza-2′-deoxycytidine and Venetoclax” (PINOTBIO, INC., priority 2021, dated 2026):
pIC50: −log10 of the molar value.

What was measured:
Experiment in all cases: drug activity profiling cytotoxicity
Type in all cases: cell-based
639-V = conditions: Homo sapiens; 639-V cell line, Bladder; read-out: Aza-T-dCyd IC50
Procedure, shortened: (§1)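 Panel of 200 cell lines; Aza-T-dCyd cytotoxicity measured by drug activity profiling.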

NCI-H295R = conditions: Homo sapiens; NCI-H295R cell line, Endocrine (Adrenal gland); read-out: Aza-T-dCyd IC50
Procedure, shortened: as §1

COR-L105 = conditions: Homo sapiens; COR-L105 cell line, Lung (NSCLC); read-out: Aza-T-dCyd IC50
Procedure, shortened: as §1

SK-MEL-28 = conditions: Homo sapiens; SK-MEL-28 cell line, Skin (Melanoma); read-out: Aza-T-dCyd IC50
Procedure, shortened: as §1

CAMA-1 = conditions: Homo sapiens; CAMA-1 cell line, Breast; read-out: Aza-T-dCyd IC50
Procedure, shortened: as §1

MeWo = conditions: Homo sapiens; MeWo cell line, Skin (Melanoma); read-out: Aza-T-dCyd IC50
Procedure, shortened: as §1

YAPC = conditions: Homo sapiens; YAPC cell line, Pancreas; read-out: Aza-T-dCyd IC50
Procedure, shortened: as §1

G-361 = conditions: Homo sapiens; G-361 cell line, Skin (Melanoma); read-out: Aza-T-dCyd IC50
Procedure, shortened: as §1

A427 = conditions: Homo sapiens, A-427; A427 cell line, Lung (NSCLC); read-out: Aza-T-dCyd IC50
Procedure, shortened: as §1

H4 = H4 cell line, CNS (Glioma); read-out: Aza-T-dCyd IC50
Procedure, shortened: as §1

DMS273 = conditions: Homo sapiens, DMS-273; DMS273 cell line, Lung (SCLC); read-out: Aza-T-dCyd IC50
Procedure, shortened: as §1

SU.86.86 = conditions: Homo sapiens; SU.86.86 cell line, Pancreas; read-out: Aza-T-dCyd IC50
Procedure, shortened: as §1

SW837 = conditions: Homo sapiens; SW837 cell line, Colon; read-out: Aza-T-dCyd IC50
Procedure, shortened: as §1

Calu6 = conditions: Homo sapiens, Calu-6; Calu6 cell line, Lung (NSCLC); read-out: Aza-T-dCyd IC50
Procedure, shortened: as §1

CCRFCEM = conditions: Homo sapiens, CCRF-CEM; CCRFCEM cell line, ALL; read-out: Aza-T-dCyd IC50
Procedure, shortened: as §1

SW982 = conditions: Homo sapiens; SW982 cell line, Sarcoma; read-out: Aza-T-dCyd IC50
Procedure, shortened: as §1

SW620 = conditions: Homo sapiens, SW-620; SW620 cell line, Colon; read-out: Aza-T-dCyd IC50
Procedure, shortened: as §1

SU-DHL-4 = conditions: Homo sapiens; SU-DHL-4 cell line, B-cell lymphoma; read-out: Aza-T-dCyd IC50
Procedure, shortened: as §1

BHT-101 = conditions: Homo sapiens; BHT-101 cell line, Endocrine (Thyroid); read-out: Aza-T-dCyd IC50
Procedure, shortened: as §1

MALME3M = conditions: Homo sapiens, Malme-3M; MALME3M cell line, Skin (Melanoma); read-out: Aza-T-dCyd IC50
Procedure, shortened: as §1

Colo 205 = conditions: Homo sapiens; Colo 205 cell line, Colon; read-out: Aza-T-dCyd IC50
Procedure, shortened: as §1

KG-1 = conditions: Homo sapiens; KG-1 cell line, AML; read-out: Aza-T-dCyd IC50
Procedure, shortened: as §1

HPAF-II = conditions: Homo sapiens; HPAF-II cell line, Pancreas; read-out: Aza-T-dCyd IC50
Procedure, shortened: as §1

LS-174T = conditions: Homo sapiens, LS174T; LS-174T cell line, Colon; read-out: Aza-T-dCyd IC50
Procedure, shortened: as §1

U-87 MG = conditions: Homo sapiens; U-87 MG cell line, CNS (Glioma); read-out: Aza-T-dCyd IC50
Procedure, shortened: as §1

TT = conditions: Homo sapiens; TT cell line, Endocrine (Thyroid); read-out: Aza-T-dCyd IC50
Procedure, shortened: as §1

FaDu = conditions: Homo sapiens; FaDu cell line, Head and Neck; read-out: Aza-T-dCyd IC50
Procedure, shortened: as §1

MEG01 = conditions: Homo sapiens, MEG-01; MEG01 cell line, CML; read-out: Aza-T-dCyd IC50
Procedure, shortened: as §1

DU145 = conditions: Homo sapiens, DU-145; DU145 cell line, Prostate; read-out: Aza-T-dCyd IC50
Procedure, shortened: as §1

NAMALWA = NAMALWA cell line, Burkitt's lymphoma; read-out: Aza-T-dCyd IC50
Procedure, shortened: as §1

SMILES: Nc1ncn([C@H]2CC(O)[C@@H](CO)S2)c(=O)n1 (stereo partly drawn) [Aza-T-dCyd, 4′-thio-5-aza-2′-deoxycytidine]
- pIC50 (639-V): 5.80
- pIC50 (NCI-H295R): < 5.00
- pIC50 (COR-L105): 5.65
- pIC50 (SK-MEL-28): 5.60
- pIC50 (CAMA-1): < 5.00
- pIC50 (MeWo): 5.98
- pIC50 (YAPC): 5.98
- pIC50 (G-361): 5.97
- pIC50 (A427): 7.11
- pIC50 (H4): 7.10
- pIC50 (DMS273): 5.25
- pIC50 (SU.86.86): 6.29
- pIC50 (SW837): 6.45
- pIC50 (Calu6): 6.54
- pIC50 (CCRFCEM): 6.92
- pIC50 (SW982): 6.77
- pIC50 (SW620): 6.63
- pIC50 (SU-DHL-4): 7.76
- pIC50 (BHT-101): 6.63
- pIC50 (MALME3M): 5.13
- pIC50 (Colo 205): 7.09
- pIC50 (KG-1): 6.34
- pIC50 (HPAF-II): 6.13
- pIC50 (LS-174T): < 5.00
- pIC50 (U-87 MG): 5.79
- pIC50 (TT): < 5.00
- pIC50 (FaDu): 6.68
- pIC50 (MEG01): 5.97
- pIC50 (DU145): 6.36
- pIC50 (NAMALWA): 7.96
